US9849100B2, “Pharmaceutical compositions suitable for parenteral administration comprising aqueous suspensions of benzylamine derivatives having low solubilities” (KalVista Pharmaceuticals Limited, priority 2013, dated 2017)
Like-named read-outs stand apart in the source and are kept apart here.

How the values were obtained:
diabetic rats = settings: cited from earlier work
[1] = Ocular tissue concentration study at twelve weeks following a single intravitreal dose in pigmented rabbits; assay type: in vivo; settings: both sexes, Dutch-belted, rabbit, other: intravitreal, single bilateral intravitreal dose of suspension, Day 86
Description: An aqueous suspension pharmaceutical composition of milled N—[(R)-1-[(S)-1-(4-aminomethyl-benzylcarbamoyl)-2-phenyl-ethylcarbamoyl]-2-(4-ethoxy-phenyl)-ethyl]-benzamide hydrochloride was prepared according to Example B1. The resulting nominal 50 mg/mL suspension was diluted with the milling vehicle (prepared according to Example B1) into dosing formulations for intravitreal injection. Five experimentally naïve male and female Dutch-belted rabbits, approximately 5 months old and weighing 1.6 to 2.2 kilograms at the outset of the study were assigned to treatment groups as shown in Table iv. [table] Animals were administered bilateral intravitreal doses of the suspension formulations once on Day 1. On Day 86, the vitreous humors and retina (with choroid) tissues were analysed for active ingredient concentration.

Row | SMILES | retinal blood flow abnormalities (diabetic rats) | retinal vascular permeability (diabetic rats) | concentration at 86 day ([1]; retina (with choroid), 15 μg/eye, low-dose group (15 μg/eye), read-out: average retina (with choroid) tissue concentration) [ng/g] | concentration at 86 day ([1]; retina (with choroid), 150 μg/eye, high-dose group (150 μg/eye), read-out: average retina (with choroid) tissue concentration) [ng/g] | concentration at 86 day ([1]; vitreous humor, 15 μg/eye, low-dose group (15 μg/eye), read-out: vitreous humor concentrations (range)) [ng/mL] | concentration at 86 day ([1]; vitreous humor, 150 μg/eye, high-dose group (150 μg/eye), read-out: average vitreous humor concentration) [ng/mL] | concentration at 86 day ([1]; vitreous humor, 150 μg/eye, high-dose group (150 μg/eye), read-out: vitreous humor concentrations (range)) [ng/mL]
1 | N=C(N)c1ccc(CNC(=O)c2cnn(Cc3ccccc3)c2)cc1 [ASP-440] | ameliorated | ameliorated |  |  |  |  | 
2 | CCOc1ccc(C[C@@H](NC(=O)c2ccccc2)C(=O)N[C@@H](Cc2ccccc2)C(=O)NCc2ccc(CN)cc2)cc1 [active ingredient, N—[(R)-1-[(S)-1-(4-aminomethyl-benzylcarbamoyl)-2-phenyl-ethylcarbamoyl]-2-(4-ethoxy-phenyl)-ethyl]-benzamide] |  |  | 1620 | 44500 | 0.216 to 935 | 27800 | 2500 to 56500
